This data set in a line: Water solubility test.

In turn, `CC1(C)C(/C=C/C2=C(Oc3ccccc3)C(=C/C=C3/N(CCCCS(=O)(=O)O)c4ccccc4C3(C)C)/CCC2)=[N+](CCCNC(=S)NCCC[N+](C)(C)CCCCCCN=C=NCCC[N+]2(C)CCOCC2)c2ccc3ccccc3c21.I` [Compound (2)] had a Solubility in water of 55 mg/mL.

The values above are taken from patent US7135293B2, “Method of detecting a nucleic acid using a fluorescent group-containing carbodiimide as a label” (Nisshinbo Industries, Inc., priority 1999, dated 2006).
